Entries after “also recorded” stand apart in the source; their conditions may differ.
Experiments:
[1] = test system: AML cells in MSC-coated scaffolds; test: In vivo mesenchymal leukemic niche in MSC-coated scaffolds implanted subcutaneously in NOD/SCID mice, CD45 immunohistochemistry; details: 4 weeks; in situ injection twice per week; SDF-1/CXCL12 10 ng/ml; AMD3100 10 μM; human CD45 stain
Procedure: Polyurethane scaffolds (10×1.5 mm—Biomerix), coated in vitro with human BM-derived MSC (day 5-7), were implanted in a subcutaneous pocket on the dorsum of non-irradiated NOD/SCID mice (Jackson laboratory) according to an approved IACUC animal protocol. Empty scaffolds (without MSC seeding) were used as negative controls. CD34+ HSC (1×10^5—Stem Cell Technology, Vancouver) or primary AML cells (1×10^7—cryopreserved and thawed) were injected either in situ or retro-orbital in the mice and analyzed for engraftment. The mice were treated twice per week with in situ injections of SDF-1/CXCL12 (10 ng/ml), AMD3100 (10 μM) or PBS (control). At week 1, week 4 and week 8, mice were sacrificed and the scaffolds, femurs and spleens were processed and evaluated for cell survival in the mesenchymal niche by immunohistochemistry.
Harvested scaffolds were fixed in formalin solution 10%, neutral buffered (HistoPak-StatLab Medical Products-TX) and paraffin embedded and cut on slides. […]
Each experiment was performed in duplicate, with two mice per experiment in each treatment arm and one mouse as a negative control. Multiple slides per scaffold were analyzed for imaging by immunohistochemistry and light microscopy. […]

MSC niche = test: In vitro mesenchymal stem cell niche (cobblestone area) formation, phase contrast imaging; assay type: cell-based, human; details: SDF-1/CXCL12 10 ng/ml, AMD3100 10 μM
Procedure: Fresh human BM samples were obtained from orthopedic surgery after informed consent (Tissue Donor Program of the Feinstein Institute). The buffy coat containing the mononucleated cells (MNC) was isolated by Ficoll-density gradient separation (Stem Cell Technology, Vancouver). MNC were plated at low density in 6-well plates in Alpha-Mem (Lonza), 20% heat-inactivated fetal bovine serum (Hyclone), 5 mM L-Glutamine and 100 Units/ml Peni/Strep (Stem Cell Technologies) for overnight adherence. After 24-48 hours, the non-adherent cell fraction was discharged by rigorous pipetting. At day 5, single-cell derived mesenchymal colonies were processed for immunohistochemistry (Vectastain ABC kit, Vector Laboratories, Burlingame, Calif.). MSC were stained for CD90/Thy-1 (Mouse anti-human mAb, Clone 5E10, BD Pharmingen), CD105 (Mouse anti-human mAb, clone 266, BD Pharmingen), CD146 (Mouse monoclonal [P1H12] Abcam). Cells were also labeled for flow cytometry with CD34-APC (Miltenyi Biotec), CD105-FITC (R&D), CD45-FITC, CD90-PECy5, CD146-PE and CXCR4-PE (BD Pharmingen) including matching isotype controls.
Polyurethane scaffold test discs (10×1.5 mm—Biomerix) were placed inside a cloning cylinder (Millipore Corporation, MA), one cylinder in each well of a 24-well plate (Falcon, BD). […]

CXCR4 = CXCR4 (Homo sapiens, UniProt P61073); details: AML; reference [42]; cited from earlier work
Chain of CXCR4 (P61073 whole entry): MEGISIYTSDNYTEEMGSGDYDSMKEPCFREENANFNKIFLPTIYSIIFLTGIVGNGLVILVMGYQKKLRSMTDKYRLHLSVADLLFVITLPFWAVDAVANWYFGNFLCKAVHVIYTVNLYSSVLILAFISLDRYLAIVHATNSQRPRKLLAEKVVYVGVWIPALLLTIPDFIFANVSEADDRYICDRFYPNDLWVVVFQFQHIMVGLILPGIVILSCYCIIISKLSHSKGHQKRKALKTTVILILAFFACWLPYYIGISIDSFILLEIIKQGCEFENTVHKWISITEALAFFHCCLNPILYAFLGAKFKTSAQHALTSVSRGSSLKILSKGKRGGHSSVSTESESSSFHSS

Row | Compound | MSC stromal layer and adherence of AML cells in MSC-coated scaffold [1] | cobblestone area formation / migration of hematopoietic progenitors underneath the MSC (MSC niche) | effect on chemoprotective effects of the stromal cell-leukemia interaction (CXCR4)
1 | c1cc(CN2CCCNCCNCCCNCC2)ccc1CN1CCCNCCNCCCNCC1 [AMD3100] | the stromal lining is thin and disrupted at several points, leaving AML cells free floating in proximity; also recorded: interact with AML homing by stem cell niche disruption at the level of the stromal layer; also recorded: thin stromal lining that was disrupted at several points, leaving AML cells free floating in proximity; also recorded: the MSC stroma became ruffled and non-adherent and AML remained only loosely attached | MSC remain empty and hematopoietic progenitors do not migrate underneath the MSC; also recorded: the cytoplasm remained empty | 
2 | SDF-1/CXCL12: chemokine stromal-cell derived factor, ligand of CXCR4 (R&D Systems) | thick proliferation of the MSC stromal layer with multiple adherent AML cells present; also recorded: upregulates adhesion of AML cells to the stroma; also recorded: induces hyperproliferation of the mesenchymal stroma compartment | cobblestone area formation | 
3 | c1ccc(CNCc2ccc(CN3CCCNCCNCCCNCC3)cc2)nc1 [AMD3465] |  |  | prevent the chemoprotective effects of the stromal cell-leukemia interaction

From patent US20110207166A1, “Human bone marrow microenvironments and uses thereof” (priority 2009, published 2011)
